The target in data set [1] is T1, THIK-1 (Homo sapiens, UniProt Q9HB14).
T1 construct: expressed in transfected cells
T1 sequence (Q9HB14 1-408): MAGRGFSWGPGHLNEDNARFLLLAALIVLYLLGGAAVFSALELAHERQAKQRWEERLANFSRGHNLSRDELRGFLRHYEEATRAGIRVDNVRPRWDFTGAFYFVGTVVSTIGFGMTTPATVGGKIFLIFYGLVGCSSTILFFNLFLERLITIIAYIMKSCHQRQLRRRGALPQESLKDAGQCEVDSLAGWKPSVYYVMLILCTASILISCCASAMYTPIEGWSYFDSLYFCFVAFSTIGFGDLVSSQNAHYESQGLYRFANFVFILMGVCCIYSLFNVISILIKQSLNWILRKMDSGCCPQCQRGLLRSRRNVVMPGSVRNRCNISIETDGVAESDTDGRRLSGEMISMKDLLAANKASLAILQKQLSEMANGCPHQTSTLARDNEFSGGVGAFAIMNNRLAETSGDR
As to the kind of experiment: Q-Patch automated electrophysiology, HEK-hTHIK-1 cells. In kind it is cell-based. The method, then:
HEK-293 cells were transfected with human THIK-1, TREK-1, TWIK-2, or mouse THIK-1 cDNA cloned into pcDNA3.1, using either Fugene HD transfection reagent (Promega) or electroporation (MaxCyte STX instrument). Cells stably expressing the relevant genes were selected based on resistance to 500 μg/ml geneticin (Gibco). For human THIK-1 and TWIK-2 expressing cells, monoclonal lines were isolated by limited dilution cloning; mouse THIK-1 and human TREK-1 expressing cells were maintained as polyclonal pools. The HEK-293 pools and monoclones stably expressing the relevant genes were maintained in DMEM (Life Technologies), supplemented with 10% FCIII (HyClone, Fetal clone III) and 500 μg/ml geneticin. A CHO-Kv2.1 cell line was purchased from Millipore (accession NM_004975) and maintained in F12 (Life Technologies), supplemented with 10% FCSIII (Thermo Scientific) and 500 μg/ml geneticin (Life Technologies). For thallium flux assays, banks of frozen cell aliquots were prepared the day prior to assay, cells were thawed into media and seeded into PDL coated 384-well plates (Corning) at 25,000 (human/mouse THIK-1, TREK-1) or 30,000 (TWIK-2) cells/well (25 μl/well). CHO-Kv2.1 cells were seeded into non-PDL coated plates (Corning) at 5000 cells/well. […]
THIK-1 mediated currents were measured using the Q-Patch 48 automated electrophysiology platform (Sophion, Denmark). […]

In data set [2] the target is Calcium Channel CaV1.2 (Homo sapiens, UniProt Q13936). As to the kind of experiment: Promiscuity screening panel, radiometric binding. As to conditions: read-out: % inhibition at 10 µM (n=2). The method, then:
(§1) C101248 was further profiled in a promiscuity screening panel, using radiometric binding assays, against a selection of 18 diverse targets at 10 μM (Supplementary Table 2).
(§2) Supplementary Table 2: Promiscuity screening panel data for C101248. Compound was screened at 10 µM, in duplicate, using radiometric binding assays

Data set [3] concerns the target Histamine H1 (Homo sapiens, UniProt P35367). As to the kind of experiment: Promiscuity screening panel, radiometric binding. As to conditions: read-out: % inhibition at 10 µM (n=2). How it is done:
as §1, §2

The test system of data set [4] is Adrenergic α1, Non-Selective. As to the kind of experiment: Promiscuity screening panel, radiometric binding. As to conditions: Rat. How it is done:
as §1, §2

In data set [5] the target is Serotonin (5-Hydroxytryptamine) 5-HT2B (Homo sapiens, UniProt P41595). The experiment in a line: Promiscuity screening panel, radiometric binding. As to conditions: read-out: % inhibition at 10 µM (n=2). The method, then: as §1, §2
For data set [6], the target named is Transporter, Serotonin (5-Hydroxytryptamine) (SERT) (Homo sapiens, UniProt P31645). The experiment in a line: Promiscuity screening panel, radiometric binding. As to conditions: read-out: % inhibition at 10 µM (n=2). The method, then: as §1, §2
For data set [7], the system named is GABAA, Flunitrazepam, Central. The experiment in a line: Promiscuity screening panel, radiometric binding. As to conditions: Rat. The method, then: as §1, §2
Data set [8] concerns the target Transporter, Norepinephrine (NET) (Homo sapiens, UniProt P23975). As to the kind of experiment: Promiscuity screening panel, radiometric binding. As to conditions: read-out: % inhibition at 10 µM (n=2). The method, then:
as §1, §2

In data set [9] the target is Muscarinic M1 (Homo sapiens, UniProt P11229). The experiment in a line: Promiscuity screening panel, radiometric binding. As to conditions: read-out: % inhibition at 10 µM (n=2). How it is done:
as §1, §2

Data set [10] relates to Sodium Channel, Site 2. As to the kind of experiment: Promiscuity screening panel, radiometric binding. As to conditions: Site 2, Rat. The method, then:
as §1, §2

In data set [11] the target is Cannabinoid CB1 (Homo sapiens, UniProt P21554). The experiment in a line: Promiscuity screening panel, radiometric binding. As to conditions: read-out: % inhibition at 10 µM (n=2). How it is done: as §1, §2
The target of data set [12] is Opiate μ (OP3, MOP) (Homo sapiens, UniProt P35372). The experiment in a line: Promiscuity screening panel, radiometric binding. As to conditions: read-out: % inhibition at 10 µM (n=2). The method, then: as §1, §2
The target of data set [13] is Adrenergic β2 (Homo sapiens, UniProt P07550). As to the kind of experiment: Promiscuity screening panel, radiometric binding. As to conditions: read-out: % inhibition at 10 µM (n=2). How it is done: as §1, §2
Data set [14] addresses Cannabinoid CB2 (Homo sapiens, UniProt P34972). The experiment in a line: Promiscuity screening panel, radiometric binding. As to conditions: read-out: % inhibition at 10 µM (n=2). How it is done: as §1, §2
Data set [15] addresses Androgen (Testosterone) (Homo sapiens, UniProt P10275). As to the kind of experiment: Promiscuity screening panel, radiometric binding. As to conditions: read-out: % inhibition at 10 µM (n=2). How it is done:
as §1, §2

Data set [16] deals with Dopamine D1 (Homo sapiens, UniProt P21728). The experiment in a line: Promiscuity screening panel, radiometric binding. As to conditions: read-out: % inhibition at 10 µM (n=2). How it is done: as §1, §2
Data set [17] relates to Calcium Channel L-Type, Benzothiazepine. The experiment in a line: Promiscuity screening panel, radiometric binding. As to conditions: Rat. The method, then:
as §1, §2

Transporter, Serotonin (5-Hydroxytryptamine) (SERT), sequence (P31645 whole entry): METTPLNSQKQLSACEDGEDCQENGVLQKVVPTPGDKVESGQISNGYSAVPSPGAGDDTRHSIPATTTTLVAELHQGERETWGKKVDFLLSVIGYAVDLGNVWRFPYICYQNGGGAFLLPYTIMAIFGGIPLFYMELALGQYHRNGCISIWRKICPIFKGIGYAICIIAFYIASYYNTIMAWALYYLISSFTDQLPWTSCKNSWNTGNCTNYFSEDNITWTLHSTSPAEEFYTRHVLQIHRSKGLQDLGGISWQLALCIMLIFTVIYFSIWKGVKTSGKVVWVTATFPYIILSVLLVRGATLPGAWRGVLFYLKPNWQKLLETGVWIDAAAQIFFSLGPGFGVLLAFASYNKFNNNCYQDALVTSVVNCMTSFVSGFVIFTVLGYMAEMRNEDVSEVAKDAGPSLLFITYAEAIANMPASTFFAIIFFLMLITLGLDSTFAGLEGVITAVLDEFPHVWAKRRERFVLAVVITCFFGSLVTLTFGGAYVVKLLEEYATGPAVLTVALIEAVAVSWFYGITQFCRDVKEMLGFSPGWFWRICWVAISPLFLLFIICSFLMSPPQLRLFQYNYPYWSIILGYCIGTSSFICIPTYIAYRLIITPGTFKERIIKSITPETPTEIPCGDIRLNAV
Androgen (Testosterone), sequence (P10275 whole entry): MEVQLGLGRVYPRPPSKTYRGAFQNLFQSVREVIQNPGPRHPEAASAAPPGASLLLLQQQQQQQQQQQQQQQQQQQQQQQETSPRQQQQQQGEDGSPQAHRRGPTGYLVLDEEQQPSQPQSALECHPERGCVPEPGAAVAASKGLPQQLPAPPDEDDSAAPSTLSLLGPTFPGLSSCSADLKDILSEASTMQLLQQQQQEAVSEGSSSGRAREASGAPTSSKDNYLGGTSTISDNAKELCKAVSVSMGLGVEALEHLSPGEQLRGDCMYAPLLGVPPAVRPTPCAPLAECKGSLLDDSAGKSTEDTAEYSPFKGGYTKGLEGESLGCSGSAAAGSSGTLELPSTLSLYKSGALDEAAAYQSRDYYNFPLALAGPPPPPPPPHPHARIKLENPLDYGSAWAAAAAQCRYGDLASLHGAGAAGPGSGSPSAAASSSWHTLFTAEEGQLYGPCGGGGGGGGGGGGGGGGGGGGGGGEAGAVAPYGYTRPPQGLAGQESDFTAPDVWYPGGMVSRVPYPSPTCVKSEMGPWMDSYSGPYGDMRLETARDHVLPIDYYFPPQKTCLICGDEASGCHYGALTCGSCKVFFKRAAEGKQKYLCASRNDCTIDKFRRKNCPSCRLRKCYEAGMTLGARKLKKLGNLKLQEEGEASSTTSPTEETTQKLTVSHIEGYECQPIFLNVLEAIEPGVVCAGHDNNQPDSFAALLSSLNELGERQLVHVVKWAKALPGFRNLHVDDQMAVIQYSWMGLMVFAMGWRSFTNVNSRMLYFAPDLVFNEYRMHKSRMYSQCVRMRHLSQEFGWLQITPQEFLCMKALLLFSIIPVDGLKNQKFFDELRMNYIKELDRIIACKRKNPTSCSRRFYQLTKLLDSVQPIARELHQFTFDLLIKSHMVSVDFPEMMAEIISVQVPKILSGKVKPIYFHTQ
Muscarinic M1, sequence (P11229 whole entry): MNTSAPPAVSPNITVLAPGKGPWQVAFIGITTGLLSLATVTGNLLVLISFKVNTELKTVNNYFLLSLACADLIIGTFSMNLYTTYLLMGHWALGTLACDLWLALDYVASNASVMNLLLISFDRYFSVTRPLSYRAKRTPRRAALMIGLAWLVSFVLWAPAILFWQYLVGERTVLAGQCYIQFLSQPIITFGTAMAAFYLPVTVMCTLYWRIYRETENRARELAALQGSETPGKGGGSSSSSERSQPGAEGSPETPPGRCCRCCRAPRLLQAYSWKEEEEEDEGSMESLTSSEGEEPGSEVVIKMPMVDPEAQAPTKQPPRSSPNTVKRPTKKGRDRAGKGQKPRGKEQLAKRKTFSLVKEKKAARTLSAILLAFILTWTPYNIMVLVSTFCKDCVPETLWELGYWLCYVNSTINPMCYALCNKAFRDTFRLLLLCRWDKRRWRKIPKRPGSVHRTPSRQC
Histamine H1, sequence (P35367 whole entry): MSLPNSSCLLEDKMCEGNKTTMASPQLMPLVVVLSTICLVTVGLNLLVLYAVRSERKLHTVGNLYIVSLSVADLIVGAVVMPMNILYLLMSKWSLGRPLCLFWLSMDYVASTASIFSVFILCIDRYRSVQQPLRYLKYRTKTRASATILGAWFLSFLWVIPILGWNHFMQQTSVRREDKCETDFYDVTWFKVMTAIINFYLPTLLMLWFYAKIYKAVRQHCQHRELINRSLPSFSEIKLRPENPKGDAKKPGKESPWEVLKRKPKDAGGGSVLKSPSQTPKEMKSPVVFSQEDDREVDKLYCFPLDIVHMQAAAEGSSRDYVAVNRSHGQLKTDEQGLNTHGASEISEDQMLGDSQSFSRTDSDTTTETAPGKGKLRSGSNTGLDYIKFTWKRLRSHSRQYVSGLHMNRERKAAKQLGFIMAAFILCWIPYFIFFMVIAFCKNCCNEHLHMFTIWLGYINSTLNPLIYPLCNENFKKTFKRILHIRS
Adrenergic β2, sequence (P07550 whole entry): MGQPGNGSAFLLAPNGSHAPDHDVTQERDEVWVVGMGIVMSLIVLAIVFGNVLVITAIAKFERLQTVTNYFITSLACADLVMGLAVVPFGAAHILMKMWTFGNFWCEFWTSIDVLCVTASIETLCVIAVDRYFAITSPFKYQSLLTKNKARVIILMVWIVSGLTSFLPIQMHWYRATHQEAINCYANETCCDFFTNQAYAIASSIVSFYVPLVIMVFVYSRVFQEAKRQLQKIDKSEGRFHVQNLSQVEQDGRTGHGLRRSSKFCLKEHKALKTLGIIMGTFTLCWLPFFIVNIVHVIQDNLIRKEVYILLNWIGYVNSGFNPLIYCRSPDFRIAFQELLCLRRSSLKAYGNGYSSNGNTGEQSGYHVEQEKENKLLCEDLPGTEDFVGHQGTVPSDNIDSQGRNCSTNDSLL
Dopamine D1, sequence (P21728 whole entry): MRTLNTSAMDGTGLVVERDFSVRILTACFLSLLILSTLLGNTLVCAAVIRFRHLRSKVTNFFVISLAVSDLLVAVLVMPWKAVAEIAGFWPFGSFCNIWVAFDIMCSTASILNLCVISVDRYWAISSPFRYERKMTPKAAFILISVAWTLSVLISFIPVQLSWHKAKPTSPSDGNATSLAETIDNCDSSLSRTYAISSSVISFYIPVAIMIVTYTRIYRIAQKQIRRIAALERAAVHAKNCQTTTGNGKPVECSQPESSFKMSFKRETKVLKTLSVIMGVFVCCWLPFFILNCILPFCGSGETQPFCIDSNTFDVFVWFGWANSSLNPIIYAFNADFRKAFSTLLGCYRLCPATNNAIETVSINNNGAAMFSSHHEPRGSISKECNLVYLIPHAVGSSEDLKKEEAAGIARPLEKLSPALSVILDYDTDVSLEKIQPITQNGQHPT
Cannabinoid CB2, sequence (P34972 whole entry): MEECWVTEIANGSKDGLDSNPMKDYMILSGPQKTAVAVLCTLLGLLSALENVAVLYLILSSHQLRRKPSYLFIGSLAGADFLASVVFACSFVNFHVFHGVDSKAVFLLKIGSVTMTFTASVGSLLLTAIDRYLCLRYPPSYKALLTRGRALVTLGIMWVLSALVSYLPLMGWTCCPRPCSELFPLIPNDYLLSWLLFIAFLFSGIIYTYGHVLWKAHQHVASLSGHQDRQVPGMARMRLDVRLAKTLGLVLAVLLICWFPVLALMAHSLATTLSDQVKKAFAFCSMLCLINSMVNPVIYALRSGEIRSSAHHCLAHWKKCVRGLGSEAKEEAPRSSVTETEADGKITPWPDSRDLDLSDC
Serotonin (5-Hydroxytryptamine) 5-HT2B, sequence (P41595 whole entry): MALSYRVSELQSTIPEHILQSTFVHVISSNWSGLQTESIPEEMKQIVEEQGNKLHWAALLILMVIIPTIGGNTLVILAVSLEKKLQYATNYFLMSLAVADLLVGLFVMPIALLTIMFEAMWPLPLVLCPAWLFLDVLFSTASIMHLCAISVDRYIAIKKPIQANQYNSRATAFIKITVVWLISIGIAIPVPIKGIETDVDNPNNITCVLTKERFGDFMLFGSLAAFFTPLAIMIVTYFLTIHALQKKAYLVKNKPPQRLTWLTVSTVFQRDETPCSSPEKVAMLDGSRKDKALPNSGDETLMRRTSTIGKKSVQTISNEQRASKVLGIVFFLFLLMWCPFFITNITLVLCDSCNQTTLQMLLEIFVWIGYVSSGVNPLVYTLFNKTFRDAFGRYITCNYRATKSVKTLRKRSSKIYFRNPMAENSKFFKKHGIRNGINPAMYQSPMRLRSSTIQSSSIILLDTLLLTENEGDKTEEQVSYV
Transporter, Norepinephrine (NET), sequence (P23975 whole entry): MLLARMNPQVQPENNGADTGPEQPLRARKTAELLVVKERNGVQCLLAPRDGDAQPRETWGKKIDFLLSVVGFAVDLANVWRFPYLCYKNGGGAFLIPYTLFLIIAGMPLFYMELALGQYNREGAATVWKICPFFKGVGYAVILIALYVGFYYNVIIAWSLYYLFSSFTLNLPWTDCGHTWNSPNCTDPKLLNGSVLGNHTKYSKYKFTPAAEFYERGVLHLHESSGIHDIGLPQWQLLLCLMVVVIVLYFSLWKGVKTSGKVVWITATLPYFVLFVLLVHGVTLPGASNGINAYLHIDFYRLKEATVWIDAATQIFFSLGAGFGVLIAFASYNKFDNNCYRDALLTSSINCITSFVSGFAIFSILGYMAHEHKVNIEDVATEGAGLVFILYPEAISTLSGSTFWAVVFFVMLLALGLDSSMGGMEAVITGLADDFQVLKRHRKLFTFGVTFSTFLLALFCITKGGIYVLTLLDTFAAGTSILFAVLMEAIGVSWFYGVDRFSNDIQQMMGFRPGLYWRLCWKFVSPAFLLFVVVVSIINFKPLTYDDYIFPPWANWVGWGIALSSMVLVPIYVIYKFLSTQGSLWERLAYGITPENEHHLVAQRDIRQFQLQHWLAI

As to `Nc1nonc1-c1nc2ccccc2n1Cc1ccncc1` [C101248], in data set [1] (HEK-hTHIK-1), the “maximum inhibition (Q-Patch)” value stood at 94%. Besides, the IC50 in data set [1] (HEK-hTHIK-1, step to +40 mV, normalised to TPA, read-out: IC50, inhibition of basal currents (Q-Patch)) stood at 147 nM. For the same compound, the inhibition at 10 µM was 12% in data set [2]; 21% in data set [3]; 24% in [5]; -7% in data set [6]; 23% in data set [8]; -3% in [9]. The inhibition at 10 µM in data set [11] is 22%; in data set [12], -9%; in [13], 15%; in [14] it was 0%; in [15] it was 6%; in data set [16], -1%. Besides, the “% inhibition at 10 µM (n=2)” value in [4] is given as 12%; in [7], -9%; in data set [10] it was 2%; in data set [17] it was 3%.

The values are drawn from paper PMC9841576, “Characterisation of C101248: A novel selective THIK-1 channel inhibitor for the modulation of microglial NLRP3-inflammasome” (Neuropharmacology, 2023).
